Patent publication US10550100B2, “5-[3-[piperzin-1-yl]-3-oxo-propyl]-imidazolidine-2,4-dione derivatives as ADAMTS 4 and 5 inhibitors for treating E.G. osteoarthritis” (GALAPAGOS NV, priority 2016, dated 2020)
pIC50: −log10 of the molar value. Read-outs that look alike come from different tables or passages of the source.

Experiments:
Assay type in all cases: biochemical
human MMP13 [1] = target: T1, human MMP13 (Homo sapiens (Human), UniProt P45452); experiment: hMMP13 390 MMP FRET Substrate I cleavage assay, Protocol 2; settings: Protocol 2, 390 MMP FRET Substrate I; read-out: hMMP-13 potency IC50
Protocol: (§1) The basis for the assay is the cleavage of the substrate 390 MMP FRET Substrate I (Anaspec Cat# AS-27076) by human MMP13 (Chemicon, Cat#CC068).
(§2) Human MMP13 is preactivated by incubated the enzyme in the same buffer complemented with 1 mM freshly prepared p-Aminophenylmercuric acetate (AMPA) for 1 h at 37° C.
(§3) The reaction is initiated by adding to the assay plate 390 MMP FRET Substrate I (10 μL, 2.5 μM) in the same buffer.
(§4) Finally, the fluorescence is read on the Envision (Perkin Elmer) after an incubation of 45 min at room temperature (Excitation 485 nm, Emission 530).

human ADAMTS-5 = human ADAMTS-5 (Homo sapiens (Human), UniProt Q9UNA0); experiment: hADAMTS-5 TBIS-1 cleavage assay, Protocol 3; settings: Protocol 3, TBIS-1 substrate, 90 min at 37° C.; read-out: hADAMTS-5 potency IC50
Chain of human ADAMTS-5 (Q9UNA0 262-930): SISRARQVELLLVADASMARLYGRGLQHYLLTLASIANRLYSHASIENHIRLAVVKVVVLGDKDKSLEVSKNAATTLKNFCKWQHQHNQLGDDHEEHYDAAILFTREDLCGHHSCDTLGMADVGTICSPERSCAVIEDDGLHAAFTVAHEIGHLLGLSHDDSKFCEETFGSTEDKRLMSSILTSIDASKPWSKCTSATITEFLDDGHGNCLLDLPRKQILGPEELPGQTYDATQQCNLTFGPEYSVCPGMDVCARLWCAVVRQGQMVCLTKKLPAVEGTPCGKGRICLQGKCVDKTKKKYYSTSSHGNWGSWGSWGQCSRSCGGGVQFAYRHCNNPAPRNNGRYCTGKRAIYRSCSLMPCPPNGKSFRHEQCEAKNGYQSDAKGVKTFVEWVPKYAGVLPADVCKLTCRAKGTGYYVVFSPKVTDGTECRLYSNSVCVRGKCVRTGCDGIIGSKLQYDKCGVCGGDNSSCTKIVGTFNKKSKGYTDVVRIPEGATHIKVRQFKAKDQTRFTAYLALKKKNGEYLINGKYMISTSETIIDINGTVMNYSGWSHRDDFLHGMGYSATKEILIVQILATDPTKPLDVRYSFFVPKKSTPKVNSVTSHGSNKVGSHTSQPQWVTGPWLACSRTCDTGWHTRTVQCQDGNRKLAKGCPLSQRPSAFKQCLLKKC
Protocol: The reaction is initiated by adding to the assay plate TBIS-1 (10 μL, 4.5 μM, Anaspec) in the same buffer.
Finally, the fluorescence is read on the Envision (Perkin Elmer) after an incubation of 90 min at 37° C. (Excitation 485 nm, emission 530).

human ADAMTS6 = human ADAMTS6 (Homo sapiens (Human), UniProt Q9UKP5); experiment: hADAMTS-6 520 MMP FRET substrate XII cleavage assay; settings: 37° C. for 2 h, read-out: hADAMTS-6 potency IC50
Chain of human ADAMTS6 (Q9UKP5 other isoform, or with tags, fused parts or gaps): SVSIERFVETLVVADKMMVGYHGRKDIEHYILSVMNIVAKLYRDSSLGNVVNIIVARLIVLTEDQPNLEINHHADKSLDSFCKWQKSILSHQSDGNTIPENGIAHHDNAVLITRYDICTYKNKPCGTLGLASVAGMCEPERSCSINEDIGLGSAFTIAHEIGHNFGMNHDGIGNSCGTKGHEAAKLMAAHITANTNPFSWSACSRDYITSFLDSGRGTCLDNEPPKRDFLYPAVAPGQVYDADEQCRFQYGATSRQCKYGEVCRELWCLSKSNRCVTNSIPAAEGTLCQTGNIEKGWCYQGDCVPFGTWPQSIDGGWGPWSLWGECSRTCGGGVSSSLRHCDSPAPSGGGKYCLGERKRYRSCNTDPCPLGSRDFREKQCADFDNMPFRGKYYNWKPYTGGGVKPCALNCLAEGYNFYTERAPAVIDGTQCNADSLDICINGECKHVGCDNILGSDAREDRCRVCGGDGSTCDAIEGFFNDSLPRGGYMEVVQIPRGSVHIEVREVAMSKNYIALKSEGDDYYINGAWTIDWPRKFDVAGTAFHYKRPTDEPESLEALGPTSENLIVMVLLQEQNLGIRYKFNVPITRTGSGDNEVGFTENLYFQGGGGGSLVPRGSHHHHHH
Text: The IC50 value for test compounds can be determined in a fluorescent based protease assay.
The basis for the assay is the cleavage of the substrate 520 MMP FRET substrate XII by human ADAMTS6.
The substrate contains sequence Arg-Pro-Lys-Pro-Tyr-Ala-Nva-Trp-Met-Lys (SEQ ID NO: 7) with attached a fluorescent probe and a quencher. Without ADAMTS6, the emission of the probe is quenched. If the substrate is cleaved by ADAMTS6, the emission of the probe is not quenched anymore. Inhibition of ADAMTS6 activity, will result in a decrease of the signal.
To perform the assay, 4 μL of a dilution series of compound in water, starting from 20 μM highest concentration, 1/5 dilution, is added to the wells. 2 ng ADAMTS6 enzyme is diluted in 25 mM Tris pH8.0, 0.05% CHAPS, 2.5 mM CaCl2 in a total volume of 26 μL (final concentration 0.73 nM). The reaction is started by addition of 10 μL of 1 μM 520 MMP FRET Substrate XII (final concentration, diluted in same buffer as described above) and the mixture is incubated at 37° C. for 2 h. […] After this incubation, cleavage of the substrate is measured using the Envision (Perkin Elmer, exc485/em530).

human MMP14 = human MMP14 (Homo sapiens (Human), UniProt P50281); experiment: hMMP14 390 MMP FRET Substrate I cleavage assay; settings: 60 min at room temperature, read-out: hMMP-14 potency IC50
Protocol: The basis for the assay is the cleavage of the substrate 390 MMP FRET Substrate I (Anaspec Cat# AS-27076) by human MMP14 (Biomol, Cat#SE-259).
as §3
Finally, the fluorescence is read on the Envision (Perkin Elmer) after an incubation of 60 min at room temperature (Excitation 485 nm, Emission 530).

human TACE = human TACE (Homo sapiens (Human), UniProt P78536); experiment: hTACE 5FAM-[…]-5TAMRA cleavage assay; settings: 75 min at room temperature, read-out: hTACE potency IC50
Chain of human TACE (P78536 215-671): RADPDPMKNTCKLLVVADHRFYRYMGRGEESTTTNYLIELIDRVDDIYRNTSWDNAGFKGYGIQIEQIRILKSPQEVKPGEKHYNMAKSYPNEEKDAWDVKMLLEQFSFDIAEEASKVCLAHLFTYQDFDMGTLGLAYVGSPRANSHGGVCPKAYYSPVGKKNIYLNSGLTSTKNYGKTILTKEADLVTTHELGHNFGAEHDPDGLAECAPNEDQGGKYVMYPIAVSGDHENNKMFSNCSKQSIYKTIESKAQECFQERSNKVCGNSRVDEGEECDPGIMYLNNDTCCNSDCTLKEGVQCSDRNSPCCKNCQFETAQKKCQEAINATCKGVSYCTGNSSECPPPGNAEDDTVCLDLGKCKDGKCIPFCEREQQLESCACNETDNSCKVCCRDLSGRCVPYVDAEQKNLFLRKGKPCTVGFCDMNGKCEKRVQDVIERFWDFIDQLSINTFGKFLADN
Protocol: Finally, the fluorescence is read on the Envision (Perkin Elmer) after an incubation of 75 min at room temperature (Excitation 485 nm, Emission 530).

human MMP13 [2] = target: T1, human MMP13; experiment: hMMP13 390 MMP FRET Substrate I cleavage assay, Protocol 1; settings: Protocol 1, 390 MMP FRET Substrate I; read-out: hMMP-13 potency IC50
Protocol: as §1, §2, §3, §4

Compound	pIC50 (human MMP13 [1])	pIC50 (human ADAMTS-5)	pIC50 (human ADAMTS6)	pIC50 (human MMP14)	pIC50 (human TACE; 5FAM-LAQAVRSSSRK-5TAMRA)	pIC50 (human TACE; 5FAM-[…]-5TAMRA)	pIC50 (human MMP13 [2])
COc1cc(Cl)c(F)cc1C1CCN(C(=O)CC[C@@]2(C)NC(=O)NC2=O)CC1 [Cpd 100, (5R)-5-[3-[4-(4-chloro-5-fluoro-2-methoxy-phenyl)-1-piperidyl]-3-oxo-propyl]-5-methyl-imidazolidine-2,4-dione]	< 7.00	< 7.00	7.60 to 12.00	< 7.00	< 7.00	–	–
COC[C@]1(C[C@H](C)C(=O)N2CCC(c3ccc(Cl)cc3OC)CC2)NC(=O)NC1=O (stereo in doubt) [Cpd 108, 5-[3-[4-(4-chloro-2-methoxy-phenyl)-1-piperidyl]-2-methyl-3-oxo-propyl]-5-(methoxymethyl) imidazolidine-2,4-dione]	< 7.00	–	7.60 to 12.00	< 7.00	–	7.00 to 7.30	–
COc1cc(Cl)cc(C2CCN(C(=O)CC[C@H]3NC(=O)NC3=O)CC2)c1 [Cpd 67, (R)-5-(3-(4-(3-chloro-5-methoxyphenyl)piperidin-1-yl)-3-oxopropyl) imidazolidine-2,4-dione]	< 7.00	< 7.00	–	–	–	–	–
COC[C@]1(C[C@H](C)C(=O)N2CCC(c3cc(Cl)c(F)cc3OC)CC2)NC(=O)NC1=O (stereo in doubt) [Cpd 107, 5-[3-[4-(5-chloro-4-fluoro-2-methoxy-phenyl)-1-piperidyl]-2-methyl-3-oxo-propyl]-5-(methoxymethyl) imidazolidine-2,4-dione]	< 7.00	–	7.60 to 12.00	< 7.00	–	7.00 to 7.30	–
COc1cc(Cl)cc(C2CCN(C(=O)CC[C@@]3(C)NC(=O)NC3=O)CC2)c1 [Cpd 66, (R)-5-(3-(4-(3-chloro-5-methoxyphenyl)piperidin-1-yl)-3-oxopropyl)-5-methyl-imidazolidine-2,4-dione]	< 7.00	< 7.00	7.60 to 12.00	–	–	7.30 to 7.60	–
Cc1ccccc1C1CCN(C(=O)CCC2(C)NC(=O)NC2=O)CC1 (stereo not drawn) [Cpd 57, 5-methyl-5-(3-oxo-3-(4-o-tolylpiperidin-1-yl)propyl) imidazolidine-2,4-dione]	–	< 7.00	< 7.00	–	< 7.00	–	< 7.00
COC[C@]1(C[C@H](C)C(=O)N2CCC(c3cc(F)c(Cl)cc3OC)CC2)NC(=O)NC1=O (stereo in doubt) [Cpd 109, 5-[3-[4-(4-chloro-5-fluoro-2-methoxy-phenyl)-1-piperidyl]-2-methyl-3-oxo-propyl]-5-(methoxymethyl) imidazolidine-2,4-dione]	< 7.00	–	7.60 to 12.00	< 7.00	–	7.00 to 7.30	–
COc1cc(C2CCN(C(=O)CC[C@H]3NC(=O)NC3=O)CC2)cc(F)c1Cl [Cpd 46, (R)-5-(3-(4-(4-chloro-3-fluoro-5-methoxyphenyl)piperidin-1-yl)-3-oxopropyl) imidazolidine-2,4-dione]	–	7.00 to 7.30	7.60 to 12.00	–	< 7.00	–	< 7.00
Cc1c(Cl)cc(Cl)cc1C1CCN(C(=O)CC[C@H]2NC(=O)NC2=O)CC1 [Cpd 48, (R)-5-(3-(4-(3,5-dichloro-2-methylphenyl)piperidin-1-yl)-3-oxopropyl) imidazolidine-2,4-dione]	–	< 7.00	7.00 to 7.30	–	< 7.00	–	< 7.00
COc1cc(Cl)ccc1C1CCN(C(=O)CC[C@H]2NC(=O)NC2=O)CC1 [Cpd 42, (R)-5-(3-(4-(4-chloro-2-methoxy-phenyl)piperidin-1-yl)-3-oxopropyl) imidazolidine-2,4-dione]	–	< 7.00	7.30 to 7.60	< 7.00	< 7.00	–	< 7.00
COc1cc(C2CCN(C(=O)CC[C@@]3(C)NC(=O)NC3=O)CC2)ccc1Cl [Cpd 85, (5R)-5-[3-[4-(4-chloro-3-methoxy-phenyl)-1-piperidyl]-3-oxo-propyl]-5-methyl-imidazolidine-2,4-dione]	< 7.00	–	7.60 to 12.00	< 7.00	–	7.00 to 7.30	–
CC1(CCC(=O)N2CCC(c3ccc(Cl)c(F)c3)CC2)NC(=O)NC1=O (stereo not drawn) [Cpd 54, 5-(3-(4-(4-chloro-3-fluorophenyl)piperidin-1-yl)-3-oxopropyl)-5-methyl-imidazolidine-2,4-dione]	–	< 7.00	7.00 to 7.30	< 7.00	< 7.00	–	< 7.00
COc1cc(OC)cc(C2CCN(C(=O)CCC3(C)NC(=O)NC3=O)CC2)c1 (stereo not drawn) [Cpd 38, 5-(3-(4-(3,5-dimethoxy-phenyl)piperidin-1-yl)-3-oxopropyl)-5-methyl-imidazolidine-2,4-dione]	–	< 7.00	7.30 to 7.60	–	< 7.00	–	< 7.00
COc1cc(Cl)ccc1C1CCN(C(=O)CCC2(C)NC(=O)NC2=O)CC1 (stereo not drawn) [Cpd 44, 5-(3-(4-(4-chloro-2-methoxyphenyl)piperidin-1-yl)-3-oxopropyl)-5-methyl-imidazolidine-2,4-dione]	–	< 7.00	7.60 to 12.00	< 7.00	< 7.00	–	< 7.00
COc1cc(C2CCN(C(=O)CC[C@@]3(C)NC(=O)NC3=O)CC2)cc(F)c1Cl [Cpd 84, (5R)-5-[3-[4-(4-chloro-3-fluoro-5-methoxy-phenyl)-1-piperidyl]-3-oxo-propyl]-5-methyl-imidazolidine-2,4-dione]	< 7.00	–	7.60 to 12.00	< 7.00	–	7.00 to 7.30	–
COc1cc(Cl)ccc1C1CCN(C(=O)[C@@H](C)C[C@@]2(C)NC(=O)NC2=O)CC1 (stereo in doubt) [Cpd 97, 5-[3-[4-(4-chloro-2-methoxy-phenyl)-1-piperidyl]-2-methyl-3-oxo-propyl]-5-methyl-imidazolidine-2,4-dione]	< 7.00	–	7.60 to 12.00	< 7.00	< 7.00	–	–
COc1cc(C2CCN(C(=O)CCC3(C)NC(=O)NC3=O)CC2)ccc1F (stereo not drawn) [Cpd 55, 5-(3-(4-(4-fluoro-3-methoxyphenyl)piperidin-1-yl)-3-oxopropyl)-5-methyl-imidazolidine-2,4-dione]	–	< 7.00	7.00 to 7.30	< 7.00	< 7.00	–	< 7.00
O=C1NC(=O)[C@@H](CCC(=O)N2CCC(c3ccc(Cl)c(F)c3)CC2)N1 [Cpd 51, (R)-5-(3-(4-(4-chloro-3-fluorophenyl)piperidin-1-yl)-3-oxopropyl) imidazolidine-2,4-dione]	–	< 7.00	7.00 to 7.30	< 7.00	< 7.00	–	< 7.00
Cc1c(Cl)cc(Cl)cc1C1CCN(C(=O)CCC2(C)NC(=O)NC2=O)CC1 (stereo not drawn) [Cpd 49, 5-(3-(4-(3,5-dichloro-2-methylphenyl)piperidin-1-yl)-3-oxopropyl)-5-methyl-imidazolidine-2,4-dione]	–	< 7.00	7.30 to 7.60	–	< 7.00	–	< 7.00
COc1cc(F)c(Cl)cc1C1CCN(C(=O)[C@@H](C)C[C@@]2(C)NC(=O)NC2=O)CC1 (stereo in doubt) [Cpd 111, 5-[3-[4-(5-chloro-4-fluoro-2-methoxy-phenyl)-1-piperidyl]-2-methyl-3-oxo-propyl]-5-methyl-imidazolidine-2,4-dione]	< 7.00	–	7.60 to 12.00	< 7.00	–	7.00 to 7.30	–
